Assay results reported in ChEMBL document CHEMBL5729653, “Substituted pyridotriazine compounds and uses thereof” (2023).
Each block holds one compound with its values, some of them ahead of it.

Assay: HIV MT-4 Serum Shift Antiviral Reporter Assay: To quantify the amount of protein binding to human serum, compounds were serially diluted (1:3) in DMSO and acoustically transferred onto 384-well assay plates via a Labcyte ECHO robot. Each plate contained up to 8 test compounds, including negative and positive controls, (DMSO, 5 μM AZT respectively). Assay plates were prepared in duplicate, and tested in either CCM (cell culture media) or HS/CCM (human serum/cell culture media). MT-4 cells were first pre-infected with pLai RLuc reporter virus for 2 h at 37° C., then further diluted in either CCM (RPMI media, 10% FBS, 1% P/S) or HS/CCM (RPMI media, 10% FBS, 50% HS, 1% P/S), and subsequently added to each plate using a Biotek Micro Flow dispenser. After a 72-h incubation in a humidified and temperature controlled incubator (37° C.), Renilla Glo (Promega) was added to all assay plates and chemiluminescence read using an Envision plate-reader. EC50 values were defined as the compound concentration that causes a 50% decrease in luminescence signal, and were calculated using a sigmoidal dose-response model to generate curve fits. To determine the amount of protein binding, EC50 fold shifts (or EC50 shifts) were calculated by dividing EC50 (HS/CCM)/EC50 (CCM).

Structure (SMILES): C[C@H]1C=C[C@H](C)N2CN1C(=O)c1c(O)c(=O)c(C(=O)NCc3c(F)cc(F)cc3F)cn12
EC50: 1.4 nM

Structure (SMILES): C[C@H]1C=CC2(CCC2)N2CN1C(=O)c1c(O)c(=O)c(C(=O)NCc3c(F)cc(F)cc3F)cn12
EC50: 3 nM

Structure (SMILES): CO[C@@H]1C=C[C@H](C)N2CN1n1cc(C(=O)NCc3c(F)cc(F)cc3F)c(=O)c(O)c1C2=O
EC50: 1.8 nM

Structure (SMILES): C[C@@H]1C[C@H](O)[C@H](O)CN2CN1n1cc(C(=O)NCc3ccc(F)cc3F)c(=O)c(O)c1C2=O
EC50 (MT4, 2 h): 1.5 nM

Next, values leading:

EC50: 1.9 nM
Structure (SMILES): C[C@@H]1C=C[C@H](CF)N2CN1n1cc(C(=O)NCc3ccc(F)cc3F)c(=O)c(O)c1C2=O

EC50 (MT4, 2 h): 1.4 nM
Structure (SMILES): CC1=C[C@H](C)N2CN([C@@H]1C)n1cc(C(=O)NCc3ccc(F)cc3F)c(=O)c(O)c1C2=O

EC50: 1.5 nM
Structure (SMILES): C[C@@H]1CC[C@H](C)N2CN1n1cc(C(=O)NCc3ccc(F)cc3F)c(=O)c(O)c1C2=O
